From US10377741B2, “Substituted heteroaryl aldehyde compounds and methods for their use in increasing tissue oxygenation” (Global Blood Therapeutics, Inc., priority 2011, dated 2019)

Columns and labels:
HbS/A = molecular target: T1, HbS/A (Homo sapiens, UniProt P68871+P69905, E7V); test: R/T assay (relaxed-to-tense transition under deoxygenated conditions); format: biochemical, human (homozygous sickle cell patients); details: 3 μM HbS/A, % R remaining vs no treatment
T1 construct: A mixture of HbS/A was purified from blood; from tissue; host or cells: blood of homozygous sickle cell patients (CHORI)
Description: A relaxed-to-tense transition assay (“R/T assay”) was used to determine the ability of substituted benzaldehyde compounds to maintain the high-oxygen affinity relaxed (R) state of hemoglobin under deoxygenated conditions. This ability can be expressed as a “delta R” value (i.e., the change in the time-period of the R state after hemoglobin is treated with a compound, as compared to the period without treatment with the compound). Delta R is the % R to remaining after the compounds treatment compared with no treatment (e.g. if R % without treatment is 8% while with treatment with a target compound is 48% R at 30 μM, then % R is 40% for that compound.
A mixture of HbS/A was purified from blood obtained from homozygous sickle cell patients though the Hemoglobinopathy Center at Children's Hospital Oakland Research Institute (CHORI) with Institutional Review Board approval. HbS/A (at a final concentration of 3 μM) was incubated for 1 hr at 37° C. in presence or absence of compounds in […] potassium phosphate buffer, pH=7.4 and 30 μM 2, 3 diphosphoglycerate (DPG) in 96 well plates in a final volume of 160 μl. Compounds were added at different concentrations (3 μM to 100 μM final concentrations). Plates were covered with a Mylar film. After incubation was completed the Mylar cover was removed and the plates were placed in a Spectrostar Nano plate reader previously heated at 37° C. Five minutes later, N2 (flow rate=20 L/min) was flowed through the spectrophotometer. Spectroscopic measurements (300 nm to 700 nm) were taken every 5 min for 2 hours. Data analysis was performed by using linear regression from the data retrieved for all wavelengths.
Table 4 below lists the delta R values where + indicates a delta R of between 0 and 30, ++ indicates a delta R of between 30 and 50, and +++ indicates a delta R of 50 or greater. Unless noted otherwise, the compounds in Table 2 were tested at 30 μM.

[1] = molecular target: T2, purified Hemoglobin S (HbS) (Homo sapiens, UniProt P68871+P69905, E7V); test: Modulation of hemoglobin oxygen affinity: oxygen equilibrium curves (HEMOX) in purified HbS; format: biochemical, human (homozygous sickle cell patients); details: compound at 30 μM; 25 μM purified HbS, 45 min at 37° C.
T2 construct: HbS was purified by a modified procedure; from tissue; host or cells: blood of homozygous sickle cell patients (CHORI); for the polymerization assay purified by the CRO VIRUSYS
How it was run: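 HbS from homozygous sickle cell patient blood, 25 μM in HEMOX buffer pH 7.4, incubated 45 min at 37° C with compound (30 μM unless noted). Air-saturated then deoxygenated with N2; p50 from Hill fit; delta p50% = (control p50 − treated p50)/control p50 × 100.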

whole blood = test: Whole blood assay: oxygen equilibrium curves of whole blood; format: cell-based, human (homozygous sickle cell patients); details: compound at 1000 μM; hematocrit 20%, 1 hour at 37° C.
Description: Oxygen Equilibrium Curves (OEC) of whole blood before and after treatment with different concentrations of substituted benzaldehyde compounds were performed as follows using a HEMOX analyzer (TCS Scientific, New Hope, Pa.). Blood samples from homozygous sickle cell patients were obtained though the Hemoglobinopathy Center at Children's Hospital Oakland Research Institute (CHORI) with Institutional Review Board approval. The hematocrit was adjusted to 20% using autologous plasma and the blood samples were incubated for 1 hour at 37° C. in absence or presence of compounds. 100 μl of these samples were added to 5 mL of Hemox buffer (30 mM TES, 130 mM NaCl, 5 mM KCl, pH=7.4) at 37° C. and then transferred to the Hemox sample chamber. The samples were saturated with oxygen by flushing with compressed air for 10 minutes. The samples were then flushed with pure nitrogen and the respective absorbances of oxy- and deoxy-Hb are recorded as a function of the solution pO2. The oxygen equilibrium data were then fitted to the Hill Model to obtain values for p50. The deoxygenation curves for both whole blood alone (control) and whole blood in the presence of the compound were collected with the TCS software.
Table 5 below lists the delta p50% values where + indicates a delta p50% of between 0 and 29, ++ indicates a delta p50% of between 30 and 50, and +++ indicates a delta p50% of 50 or greater. Unless noted otherwise, the compounds in Table 2 were tested at 1000 μM.

SMILES | delta R (HbS/A; compound at 9 μM) | delta p50% [1] | delta R (HbS/A; compound at 30 μM) | delta p50% Values for Whole Blood Assay (whole blood)
Cc1ccc(OCc2nccc3ccccc23)c(C=O)n1 [Compound 93, 3-(isoquinolin-1-ylmethoxy)-6-methylpicolinaldehyde] | + (a delta R of between 0 and 30) | ++ (a delta p50% of between 30 and 50) | – | + (a delta p50% of between 0 and 29)
COc1cc(C=O)c(OCc2cccc3ocnc23)cn1 [Compound 103, 5-(benzo[d]oxazol-4-ylmethoxy)-2-methoxyisonicotinaldehyde] | ++ (a delta R of between 30 and 50) | ++ (a delta p50% of between 30 and 50) | – | + (a delta p50% of between 0 and 29)
Cc1ccc(OCc2ccc3c(cnn3C)c2)c(C=O)n1 [Compound 108, 6-methyl-3-((1-methyl-1H-indazol-5-yl)methoxy)picolinaldehyde] | +++ (a delta R of 50 or greater) | ++ (a delta p50% of between 30 and 50) | – | + (a delta p50% of between 0 and 29)
COc1cc(C=O)c(OCc2c(-c3ccn[nH]3)ncc3ccccc23)cn1 [Compound 133, 5-((3-(1H-pyrazol-5-yl)isoquinolin-4-yl)methoxy)-2-methoxyisonicotinaldehyde] | ++ (a delta R of between 30 and 50) | ++ (a delta p50% of between 30 and 50) | – | + (a delta p50% of between 0 and 29)
COc1cc(C=O)c(OCc2cccn3cncc23)cn1 [Compound 140, 5-(imidazo[1,5-a]pyridin-8-ylmethoxy)-2-methoxyisonicotinaldehyde] | + (a delta R of between 0 and 30) | ++ (a delta p50% of between 30 and 50) | – | + (a delta p50% of between 0 and 29)
COCCOc1cc(C=O)c(OCc2cccn3ccnc23)cn1 [Compound 179, 5-(imidazo[1,2-a]pyridin-8-ylmethoxy)-2-(2-methoxyethoxy) isonicotinaldehyde] | + (a delta R of between 0 and 30) | ++ (a delta p50% of between 30 and 50) | – | ++ (a delta p50% of between 30 and 50)
Cc1cn[nH]c1-c1ncccc1COc1c[nH]c(=O)cc1C=O [Compound 194, 5-((2-(4-methyl-1H-pyrazol-5-yl)pyridin-3-yl)methoxy)-2-oxo-1,2-dihydropyridine-4-carbaldehyde] | + (a delta R of between 0 and 30) | ++ (a delta p50% of between 30 and 50) | – | + (a delta p50% of between 0 and 29)

More lines, main results first:

delta R (HbS/A; compound at 9 μM) | delta p50% [1] | delta R (HbS/A; compound at 30 μM) | SMILES | delta p50% Values for Whole Blood Assay (whole blood)
++ (a delta R of between 30 and 50) | ++ (a delta p50% of between 30 and 50) | – | COc1cc(C=O)c(OCc2cccc3ncccc23)cn1 [Compound 120, 2-methoxy-5-(quinolin-5-ylmethoxy)isonicotinaldehyde] | + (a delta p50% of between 0 and 29)
++ (a delta R of between 30 and 50) | ++ (a delta p50% of between 30 and 50) | – | COc1cc(C=O)c(OCc2cccnc2-c2ccnn2C)cn1 [Compound 129, 2-methoxy-5-((2-(1-methyl-1H-pyrazol-5-yl)pyridin-3-yl)methoxy)isonicotinaldehyde] | ++ (a delta p50% of between 30 and 50)
+ (a delta R of between 0 and 30) | ++ (a delta p50% of between 30 and 50) | – | COc1cc(C=O)c(OCc2cccnc2-c2nn[nH]n2)cn1 [Compound 131, 5-((2-(2H-tetrazol-5-yl)pyridin-3-yl)methoxy)-2-methoxyisonicotinaldehyde] | + (a delta p50% of between 0 and 29)
– | +++ (a delta p50% of 50 or greater) | ++ (a delta R of between 30 and 50) | COc1cc(C=O)c(OCc2cccnc2-c2[nH]ncc2C)cn1 [Compound 132, 2-methoxy-5-((2-(4-methyl-1H-pyrazol-5-yl)pyridin-3-yl)methoxy)isonicotinaldehyde] | ++ (a delta p50% of between 30 and 50)
+ (a delta R of between 0 and 30) | ++ (a delta p50% of between 30 and 50) | – | COc1cc(C=O)c(OCc2cccnc2-c2cnn(C)c2C)cn1 [Compound 143, 5-((2-(1,5-dimethyl-1H-pyrazol-4-yl)pyridin-3-yl)methoxy)-2-methoxyisonicotinaldehyde] | + (a delta p50% of between 0 and 29)
– | +++ (a delta p50% of 50 or greater) | ++ (a delta R of between 30 and 50) | COc1cc(C=O)c(OCc2cccnc2C(C)(C)O)cn1 [Compound 183, 5-((2-(2-hydroxypropan-2-yl)pyridin-3-yl)methoxy)-2-methoxyisonicotinaldehyde] | +++ (a delta p50% of 50 or greater)
– | ++ (a delta p50% of between 30 and 50) | ++ (a delta R of between 30 and 50) | COCCOc1cc(C=O)c(OCc2cccnc2-c2ccnn2C)cn1 [Compound 184, 2-(2-methoxyethoxy)-5-((2-(1-methyl-1H-pyrazol-5-yl)pyridin-3-yl)methoxy)isonicotinaldehyde] | +++ (a delta p50% of 50 or greater)
+ (a delta R of between 0 and 30) | +++ (a delta p50% of 50 or greater) | – | COc1cc(C=O)c(OCc2cccnc2-c2ccnn2CCO)cn1 [Compound 191, 5-((2-(1-(2-hydroxyethyl)-1H-pyrazol-5-yl)pyridin-3-yl)methoxy)-2-methoxyisonicotinaldehyde] | +++ (a delta p50% of 50 or greater)
– | +++ (a delta p50% of 50 or greater) | ++ (a delta R of between 30 and 50) | COc1cc(C=O)c(OCc2cccnc2-c2ccnn2C2CCCCC2)cn1 [Compound 196, 5-((2-(1-cyclohexyl-1H-pyrazol-5-yl)pyridin-3-yl)methoxy)-2-methoxyisonicotinaldehyde] | ++ (a delta p50% of between 30 and 50)
+ (a delta R of between 0 and 30) | ++ (a delta p50% of between 30 and 50) | – | COC(=O)CCn1nccc1-c1ncccc1COc1cnc(OC)cc1C=O [Compound 200, methyl 3-(5-(3-(((4-formyl-6-methoxypyridin-3-yl)oxy)methyl)pyridin-2-yl)-1H-pyrazol-1-yl)propanoate] | +++ (a delta p50% of 50 or greater)
+ (a delta R of between 0 and 30) | ++ (a delta p50% of between 30 and 50) | – | COc1cc(C=O)c(OCc2cccnc2-c2ccn(CCC(=O)O)n2)cn1 [Compound 201, 3-(3-(3-((4-formyl-6-methoxypyridin-3-yloxy)methyl)pyridin-2-yl)-1H-pyrazol-1-yl)propanoic acid] | + (a delta p50% of between 0 and 29)
